According to article PMC5618632, “In Vitro Glucuronidation of Wushanicaritin by Liver Microsomes, Intestine Microsomes and Expressed Human UDP-Glucuronosyltransferase Enzymes” (International Journal of Molecular Sciences, 2017):

Tests used:
Assay type in all cases: in vitro ADME
[1] = Glucuronidation by pooled human liver microsomes (HLM), UDPGA-supplemented; settings: probe substrate glucuronidation
Description: (§1) The reaction was terminated by adding ice-cold acetonitrile. […] All experiments were performed in triplicate.
(§2) The parameter were as follow. V is the formation rate of the product. Vmax is the maximal velocity. […] Ksi is the substrate inhibition constant. […] (1) V=Vmax ×[S]/Km+[S] (2) V=Vmax ×[S]/Km + [S](1+[S]/Ksi)

UGT1A3 = molecular target: T1, UGT1A3 (Homo sapiens, UniProt P35503); assay: Glucuronidation by expressed UGT1A3; settings: human, expressed UGT1A3 (Supersome); probe substrate glucuronidation; UGT1A3
T1 construct: purchased Corning Biosciences
T1 sequence (P35503 29-534): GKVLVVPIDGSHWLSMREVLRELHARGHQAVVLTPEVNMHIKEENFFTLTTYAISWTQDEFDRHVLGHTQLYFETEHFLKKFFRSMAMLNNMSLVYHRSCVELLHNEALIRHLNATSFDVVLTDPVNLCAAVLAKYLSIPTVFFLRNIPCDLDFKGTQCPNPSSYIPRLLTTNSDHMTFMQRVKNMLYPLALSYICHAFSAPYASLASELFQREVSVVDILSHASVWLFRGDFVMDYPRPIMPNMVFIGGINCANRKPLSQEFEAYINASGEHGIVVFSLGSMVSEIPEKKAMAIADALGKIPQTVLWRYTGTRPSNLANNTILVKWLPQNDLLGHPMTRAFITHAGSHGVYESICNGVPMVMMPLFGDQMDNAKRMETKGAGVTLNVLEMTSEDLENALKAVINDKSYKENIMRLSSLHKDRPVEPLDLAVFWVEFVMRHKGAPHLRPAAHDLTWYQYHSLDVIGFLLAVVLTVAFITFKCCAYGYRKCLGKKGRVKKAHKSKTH
Description: as §1
(§3) A series of working solutions of wushanicaritin were determined by the Acquity™ UPLC I-Class system equipped with a BEH C18 column (2.1 mm × 50 mm, 1.7 µm, Waters, Ireland, Part No. 186002350). The gradient elution program was the same as the UPLC condition of the structural identification of wushanicaritin glucuronides above. The detection wavelength was set at 270 nm, and the injection volume was 8 µL.
as §2
(§4) The contribution of individual expressed UGT enzymes to wushanicaritin glucuronidation in HLM was evaluated by the relative activity factor (RAF) approach as described in previous studies. The relative activity factor was defined as the activity ratio of HLM to an expressed UGT enzyme (Supersome) toward a probe substrate for this enzyme using Equation (3). The relative amount of wushanicaritin glucuronidation in HLM attributed to an expressed UGT enzyme was estimated by multiplying the glucuronidation activity (i.e., the intrinsic clearance) derived with this enzyme by the corresponding RAF. […] The contributions of individual UGT enzyme were calculated according to Equation (4). […]

expressed human UGT1A3 = molecular target: T2, expressed human UGT1A3 (Homo sapiens, UniProt P35503); assay: Glucuronidation by expressed UGT1A3; settings: relative activity factor for UGT1A3 = CLint(probe, pHLM)/CLint(probe, Supersome)
T2 construct: purchased Corning Biosciences
T2 sequence (P35503 29-534): T1 sequence (P35503 29-534)
Description: as §1, §3, §2, §4

`C[C@H](CCC(=O)O)[C@H]1CC[C@H]2[C@@H]3[C@H](O)C[C@@H]4C[C@H](O)CC[C@]4(C)[C@H]3CC[C@]12C` [CDCA, chenodeoxycholic acid, reference compound] showed a microsomal CLint ([1]; human, pooled liver microsomes) of 8.86 ± 0.74 µL/min/mg, a Km ([1]; human, pooled liver microsomes, read-out: Km) of 14.3 ± 1.16 µM and a Vmax [1] of 0.13 ± 0.003 nmol/min/mg. For the same molecule, the microsomal CLint (UGT1A3) was 18.5 ± 1.28 µL/min/mg and the RAF (expressed human UGT1A3) was 0.48.
